This note sets out measurements from ChEMBL document CHEMBL3297701, “Functionalization, cyclization and antiviral activity of A-secotriterpenoids” (Eur J Med Chem, 2014).

A short description of series [1]: microbe, parasite or virus in culture. The format is functional, Influenza A virus (A/ts1/1/A/FPV/Rostock/1934(H7N1)). The conditions noted are these: Influenza A virus, 36 h.
The nature of a further series: in vitro. The conditions noted are these: chicken, primary chicken embryo cells.
Series [2] relates to Human immunodeficiency virus 1. Kind of series: Antiviral activity against HIV-1 zmb infected in human MT-4 cells after 72 hrs by MTT assay. The format is functional, organism-based, MT4.
A short description of series [3]: Selectivity ratio of MTD for human MT-4 cells to EC50 for HIV-1 zmb infected in human MT-4 cells. The format is ADME, cell-based, MT4.
Setting [4] is: Human immunodeficiency virus 1, zmb, MT4, 72 h, read-out: EC50.

Molecules are shown by their SMILES.

Usually EC50 stands for the concentration that produces a half-maximal response.

The compound `CC(C)(/C=N/O)[C@@H]1CC[C@]2(C)[C@H](CC[C@@H]3[C@H]4[C@H]5OC[C@@]4(CCC5(C)C)CC[C@]32C)[C@@]1(C)CC#N` yielded an EC50 in series [1] of 58.7 µM. In addition, in “in vitro”, the selectivity ratio was 7.2. `C=C(C)[C@@H]1CC[C@]2(C(=O)OC)CC[C@]3(C)[C@H](CC[C@@H]4[C@@]5(C)C/C(=N\O)[C@H](O)C(C)(C)[C@@H]5CC[C@]43C)[C@@H]12`: the EC50 in series [1] was above 100 µM. Consider `C=C(C)[C@@H]1CC[C@]2(C(=O)O)CC[C@]3(C)[C@H](CC[C@@H]4[C@@](C)(CC#N)[C@H](C(C)(C)/C=N/O)CC[C@]43C)[C@@H]12`, for which the EC50 in series [1] was determined as 18.2 µM; in series [2] (setting [4]), 0.06 µM. Besides, the selectivity ratio in series [3] came to 50; in “in vitro” it was 5.7.

With `CC1(C)CC[C@]23CC[C@]4(C)[C@H](CC[C@@H]5[C@@]6(C)C/C(=N\O)[C@H](O)C(C)(C)[C@@H]6CC[C@]54C)[C@H]2[C@H]1OC3`, the EC50 in series [1] is above 100 µM.

In turn, `COC(=O)[C@@]1(C)CCC2(C)CC[C@]3(C)C(=CC(=O)[C@@H]4[C@@]5(C)C/C(=N\O)C(=O)C(C)(C)[C@@H]5CC[C@]43C)[C@@H]2C1` (single isomer, unassigned) came in with an EC50 in series [1] above 100 µM.

In series [1], `CC1(C)CC[C@]23CC[C@]4(C)[C@H](CC[C@@H]5[C@@]6(C)C/C(=N\O)C(=O)C(C)(C)[C@@H]6CC[C@]54C)[C@H]2[C@H]1OC3` registered an EC50 above 100 µM.

With `C=C(C)[C@@H]1CC[C@]2(C(=O)OC)CC[C@]3(C)[C@H](CC[C@@H]4[C@@]5(C)C(C#N)=C(N)C(C)(C)[C@@H]5CC[C@]43C)[C@@H]12`, the EC50 result in series [2] (mt4) is “Not Active”. As to `COC(=O)[C@@]1(C)CCC2(C)CC[C@]3(C)C(=CC(=O)[C@@H]4[C@@]5(C)C/C(=N\O)[C@H](O)C(C)(C)[C@@H]5CC[C@]43C)[C@@H]2C1` (single isomer, unassigned), the response in series [1] was half-maximal at 57.2 µM (EC50). The selectivity ratio in the series “in vitro” was 3.4. The compound `C=C(C)[C@@H]1CC[C@]2(C(=O)O)CC[C@]3(C)[C@H](CC[C@@H]4[C@@]5(C)C/C(=N\O)[C@H](O)C(C)(C)[C@@H]5CC[C@]43C)[C@@H]12` registered a 50% effective concentration (EC50) in series [1] of 31.5 µM. Further, in “in vitro”, the selectivity ratio turned out to be 6.8.

In the case of `C=C(C)[C@@H]1CC[C@]2(C(=O)OC)CC[C@]3(C)[C@H](CC[C@@H]4[C@@]5(C)C(C#N)=CC(C)(C)[C@@H]5CC[C@]43C)[C@@H]12`, the EC50 in series [2] (setting [4]) is 50.5 µM. Also, the selectivity ratio in series [3] is 3.2. In turn, `C=C(C)[C@@H]1CC[C@]2(C(=O)OC)CC[C@]3(C)[C@H](CC[C@@H]4[C@@]5(C)C/C(=N\O)C(=O)C(C)(C)[C@@H]5CC[C@]43C)[C@@H]12` had an EC50 in series [1] of 98 µM. Besides, the selectivity ratio in “in vitro” was 4.1. The corresponding values for `COC(=O)[C@@]1(C)CCC2(C)CC[C@]3(C)C(=CC(=O)[C@@H]4[C@@](C)(CC#N)[C@H](C(C)(C)C=O)CC[C@]43C)[C@@H]2C1` (single isomer, unassigned) are 53.5 µM and 15.1. Take `C=C(C)[C@@H]1CC[C@]2(C(=O)OC)CC[C@]3(C)[C@H](CC[C@@H]4[C@@](C)(CC#N)[C@H](C(C)(C)/C=N/O)CC[C@]43C)[C@@H]12`: the EC50 in series [1] was 22.7 µM; in series [2] (mt4) it was “Not Active”. Moreover, in “in vitro”, the selectivity ratio was 35.4. Turning to `C/N=C/C(C)(C)[C@@H]1CC[C@]2(C)[C@H](C(=O)C=C3[C@@H]4C[C@@](C)(C(=O)OC)CC[C@]4(C)CC[C@]32C)[C@@]1(C)CC#N`, the response in series [1] was half-maximal at 51.9 µM (EC50). Moreover, the selectivity ratio in “in vitro” turned out to be 15.1. For `CC1(C)CC[C@]23CC[C@]4(C)[C@H](CC[C@@H]5[C@@]6(C)C(C#N)=C(N)C(C)(C)[C@@H]6CC[C@]54C)[C@H]2[C@H]1OC3`, in series [2] (mt4), the EC50 result is listed as “Not Active”. In turn, `C=C(C)[C@@H]1CC[C@]2(C(=O)O)CC[C@]3(C)[C@H](CC[C@@H]4[C@@](C)(CC#N)[C@H](C(C)(C)C=O)CC[C@]43C)[C@@H]12` gave an EC50 in series [1] of 7.7 µM. Also, the selectivity ratio in the series “in vitro” turned out to be 3.5. In the case of `CC1(C)C=C(C#N)[C@]2(C)[C@H]3CC[C@@H]4[C@H]5[C@H]6OC[C@@]5(CCC6(C)C)CC[C@@]4(C)[C@]3(C)CC[C@@H]12`, in series [2] (mt4), the EC50 entry is given as “Not Active”. In the case of `C=C(C)[C@@H]1CC[C@]2(C(=O)O)CC[C@]3(C)[C@H](CC[C@@H]4[C@@]5(C)C/C(=N\O)C(=O)C(C)(C)[C@@H]5CC[C@]43C)[C@@H]12`, the results for the EC50 in series [1] and in series [2] (setting [4]) were 12.9 µM and 0.06 µM, respectively. Moreover, the selectivity ratio in series [3] is 51.5; in the series “in vitro”, 64.1.
